One experiment relates to HCT116 xenograft. The experiment is described as follows: Xenograft tumor growth inhibition (Example 7). It is filed as in vivo, mice. The note with it: HCT116, Colon; oral 15 mg/kg b.i.d. 2 consecutive days per week or 3 mg/kg b.i.d. every day, 3 weeks. As to the method:
Mice were injected subcutaneously with 2×10^6 human HCT 116 colon tumor cells. When tumors were established (approximately 200 mm^3), mice were randomized into experimental treatment groups (n=10) and treated orally with AMG 900 at 1.5, 2.25 or 3 mg/kg everyday or, 3.75, 7.5 or 15 mg/kg intermittently for the duration of the experiment. Mice were provided nutritional supplements on a daily basis. Tumor volumes and body weights were recorded twice per week using caliper and analytical digital scale, respectfully. Tumor data were represented by mean tumor volume +/−SEM. Statistical significance for tumor growth inhibition was determined by repeated measurements ANOVA (RMANOVA) followed by Scheffe post-hoc analysis.
The in-vivo effect of AMG 900 on tumor growth was further evaluated in a panel of human xenografts from five different tumor types (breast, colon, lung, pancreatic, and uterine), including three MDR xenograft models. Mice bearing established tumors were orally administered AMG 900 at 15 mg/kg b.i.d. for 2 consecutive days per week for 3 weeks or at 3 mg/kg b.i.d. every day for 3 weeks. The maximum percentage of tumor growth inhibition (TGI) is reported, in Table 7 below, for each xenograft model. The percentage of TGI was calculated as the difference between the change in vehicle-treated control and AMG 900-treated tumor volumes during the study period.

Another experiment deals with HCT116 AZD1152-resistant. The experiment is described as follows: Colony formation assay (FIG. 6-B). It is filed as cell-based, human. The note with it: HCT116 AZD1152-resistant; 48 hours treatment, re-plated drug-free. As to the method:
Tumor cell lines were obtained from the American Type Culture Collection (ATCC) unless otherwise specified. The MDA-MB-231-PTX and NCI-H460-PTX cell lines were established by growing the cells in the presence of increasing concentrations of paclitaxel over a period of 6 months. The HCT116 AZD1152-resistant cell line was established by growing the cells in the presence of AZD1152 at 80 nmol/L. Tumor cells were treated with AMG 900, paclitaxel or AZD1152 (0.5, 5, 50 nmol/L) for 48 hours, washed twice with complete media, and cells were re-plated at a density of 5000 cells per well in drug-free complete media. Cells were grown until the DMSO control wells were confluent. Cells were stained with crystal violet dye (Sigma), washed with distilled water, and imaged using a digital scanner (Hewlett-Packard). Colony formation assay was performed with HCT116 cell lines (parental and AZD1152-resistant). Cells were treated with DMSO, AMG 900, AZD1152, or paclitaxel at the indicated concentrations for 48 hours and re-plated in complete media lacking the inhibitor. After the DMSO-treated cells reached confluence, the cells were stained with crystal violet and imaged (duplicate wells).

The subject of experiment [1] is MDA-MB-231 PTX paclitaxel resistant. Briefly: p-histone H3 fluorescence-based cell imaging assay. The note with it: Homo sapiens. Further details: species or system human. As to the method:
All high-content cell assays were performed on an ArrayScan VTi HCS Reader (Cellomics). Tumor cell lines were treated with AMG 900, AZD1152, MK-0457, or PHA-739358 (concentration range varied based on potency). The cells were prepared for intracellular staining with an anti-p-histone H3 Ser^10 antibody as previously described (1). Detection was performed with an anti-rabbit IgG-alexa-568 antibody and DAPI. The cellular levels of p-histone H3 were analyzed using Target Activation V2 algorithm (Cellomics) to determine the percentage of positive cells. For the imaging assays, the concentration-response curves and corresponding IC50 and EC50 values were calculated using the percentage of cells affected versus the DMSO control.

In another experiment the test system is HCT15 xenograft. The experiment is described as follows: Xenograft tumor growth inhibition (Example 3). It is filed as in vivo, athymic nude mice. The note with it: HCT15, Colon; oral BID, best of intermittent or continuous dose schedule. As to the method:
(§1) To investigate whether AMG 900-induced suppression of aurora kinase activity inhibits cell proliferation, the antiproliferative efficacy of AMG 900 was evaluated in-vivo in multiple human cancer xenograft models, including breast, colon, leukemia, lung, pancreatic, and uterine cancer models, grown in athymic nude mice. Mice were administered AMG 900 orally at 3.75, 7.5, or 15 mg/kg BID for 2 consecutive days per week or 3 mg/kg BID everyday for the duration of the study beginning when tumors were established. The reagents, solutions, equipment, formulation of AMG 900, tumor volume measurements and calculations were generally as described in Example 4 below.
(§2) The effect of AMG 900 was tested on the multidrug resistant cell line MES-SA Dx5 grown in vivo as a tumor xenograft. Mice were administered AMG 900 orally at 15 mg/kg BID for 2 consecutive days per week or 3.0 mg/kg BID everyday for the duration of the study. Dosing was initiated when tumors were established (10 days after tumor implantation).

Experiment [2] has as its system NCI-H460-Taxol-r xenograft. The experiment is described as follows: Xenograft tumor growth inhibition (Example 3). It is filed as in vivo, athymic nude mice. The note with it: Lung, oral BID, best of intermittent or continuous dose schedule. The method, then:
as §1, §2

Another experiment concerns MES-SA Dx5. Briefly: p-Histone H3 assay (ArrayScan VTi). The note with it: Homo sapiens, 24 h; MES-SA Dx5, Uterine, Doxorubicin-selected, P-gp overexpressing. It is filed as cell-based. As to the method:
(§3) MES-SA Dx5 and MES-SA cells were plated at a density of 10,000 cells/well onto 96-well plate in complete media and cultured for 24 hours. […] Cells were washed and fixed by adding 100 μL of 2× formaldehyde fixation buffer for 10 minutes and room temperature. […] Cells were immunostained with p-histone H3 antibody (5 μg/mL) and incubated at room temperature for 2 hours. Cells were washed in 100 μL of wash buffer. Next, cells were incubated with a goat anti-rabbit alexa-488 conjugated antibody (1.5 μg/mL) in wash buffer supplemented with Hoechest DNA dye (1 μg/mL) and incubated at room temperature in the dark for 30 minutes. Cells were washed twice with 100 μL of wash buffer. The 96-well plates were analyzed on an ArrayScan VTi (Cellomics) using a bioapplication algorithm (TargetActivation.V2). […] Cells were then fixed and stained with p-histone H3 antibody and counterstained with a DNA dye (Hoechest). Imaging-based analysis (ArrayScan VTi) was performed to measure the percentage of p-histone H3 positive cells. The dose-response curves represent either AMG 900 or taxol concentrations plotted against p-Histone H3 positive cells as a percentage of DMSO-treated control (POC). The EC50 values were calculated by 4-parameter fit model.

For a further experiment, the system named is MES-SA. The experiment is described as follows: p-Histone H3 assay (ArrayScan VTi). It is filed as cell-based. The following applies: Homo sapiens, 24 h, Uterine, Parent line. As to the method: as §3

Marks after values point to notes of the source that are not given here.

The term EC50 denotes the concentration giving half of the maximal effect. Broadly, the IC50 is the concentration at which inhibition is half-maximal. As to `Cc1csc(-c2nnc(Nc3ccc(Oc4ncccc4-c4ccnc(N)n4)cc3)c3ccccc23)c1` [AMG 900, N-(4-((3-(2-amino-4-pyrimidinyl)-2-pyridinyl)oxy)phenyl)-4-(4-methyl-2-thienyl)-1-phthalazinamine], in the experiment with HCT116 xenograft, the “Maximum TGI (%)” value is 85** %. In addition, the “concentrations inhibiting colony formation” value with HCT116 AZD1152-resistant was at least 5 nmol/L. In addition, the EC50 in experiment [1] (MDA-MB-231-PTX*, Breast, P-gp+, read-out: Cellular EC50) is 3 nM; in the experiment with MES-SA Dx5, under 2 nM; in the experiment with MES-SA, under 2 nM. The half-inhibitory concentration (IC50) in experiment [1] (MDA-MB-231 PTX paclitaxel resistant, P-gp +) was found to be 3 nM. In addition, the “% TGI (tumor growth inhibition)” value in the experiment on HCT15 xenograft was 51%; in experiment [2], 66%.

These data come from patent US20120028917A1, “Use Of N-(4-((3-(2-Amino-4-Pyrimidinyl)-2-Pyridinyl)Oxy)Phenyl)-4-(4-Methyl-2-Thienyl)-1-Phthalazinamine In The Treatment Of Antimitotic Agent Resistant Cancer” (Amgen Inc., priority 2009, published 2012).
